Assay results published in ChEMBL document CHEMBL1201862, “PubChem BioAssay data set” (2004).
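Following 48 hours of exposure in 96-well plates, responses at five concentrations were used to interpolate endpoints linearly. Abbreviation: GI50, concentration required for 50% inhibition of growth.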 The source made the active and inactive calls. Rule as the data show it: active = GI50 up to about 1.1 µM and inactive = higher. Where a SMILES comes first, the peptide text is derived from it. [ ]: non-standard residue; d: D form. The star is where a group is joined. ξ: configuration not given here. ξNMe2Val = CC(C)C(C(=O)*)N(C)C; NMeV = CN[CH](C(=O)O)C(C)C; NHBn = c1ccc(CN*)cc1

Columns and labels:
Experiment in all cases: DTP human tumour cell line panel, 48 h
[1] = test system: HCT-15
[2] = test system: NCI/ADR-RES
[3] = test system: 786-0
[4] = test system: SR
[5] = test system: DU-145
[6] = test system: MDA-MB-231
[7] = test system: MOLT-4
[8] = test system: HL-60
[9] = test system: A498
[10] = test system: UACC-62
[11] = test system: NCI-H522
[12] = test system: TK-10
[13] = test system: SK-MEL-28
[14] = test system: SNB-19
[15] = test system: Hs-578T
[16] = test system: SF-268
[17] = test system: HOP-92
[18] = test system: SW-620
[19] = test system: MDA-N
[20] = test system: IGROV-1
[21] = test system: K562
[22] = test system: HT-29
[23] = test system: KM12
[24] = test system: EKVX
[25] = test system: LOX IMVI
[26] = test system: OVCAR-3
[27] = test system: A549
[28] = test system: BT-549
[29] = test system: OVCAR-5
[30] = test system: U-251
[31] = test system: SK-MEL-5
[32] = test system: MCF7
[33] = test system: SK-MEL-2
[34] = test system: HCT-116
[35] = test system: M14
[36] = test system: SN12C
[37] = test system: RPMI-8226
[38] = test system: PC-3
[39] = test system: Malme-3M
[40] = test system: OVCAR-8
[41] = test system: NCI-H460
[42] = test system: OVCAR-4
[43] = test system: ACHN
[44] = test system: SF-539
[45] = test system: NCI-H226
[46] = test system: CAKI-1
[47] = test system: SF-295
[48] = test system: NCI-H23
[49] = test system: UACC-257
[50] = test system: SK-OV-3
[51] = test system: HCC 2998
[52] = test system: MDA-MB-435
[53] = test system: COLO 205
[54] = test system: CCRF-CEM
[55] = test system: UO-31
[56] = test system: SNB-75
[57] = test system: HOP-62
[58] = test system: RXF 393

COc1ccc(N2C(=O)CSC2c2cc(OC)c(OC)c(OC)c2)cc1 (centres undefined)
GI50 [1]: 16 µM | GI50 [2]: 22.2 µM (inactive) | GI50 [3]: 21.4 µM (inactive) | GI50 [4]: 5.41 µM (inactive) | GI50 [5]: 14.5 µM (inactive) | GI50 [6]: 26.5 µM (inactive) | GI50 [7]: 21.4 µM (inactive) | GI50 [8]: 17.5 µM (inactive) | GI50 [9]: 29 µM (inactive) | GI50 [10]: 4.71 µM (inactive) | GI50 [11]: 14.1 µM (inactive) | GI50 [12]: 43.2 µM (inactive) | GI50 [13]: 33.4 µM (inactive) | GI50 [14]: 23.2 µM (inactive) | GI50 [15]: 48.6 µM (inactive) | GI50 [16]: 31.8 µM (inactive) | GI50 [17]: 54.6 µM (inactive) | GI50 [18]: 34 µM (inactive) | GI50 [19]: 9.68 µM (inactive) | GI50 [20]: 33.7 µM (inactive) | GI50 [21]: 11.9 µM (inactive) | GI50 [22]: 21.6 µM (inactive) | GI50 [23]: 15.1 µM (inactive) | GI50 [24]: 28.4 µM (inactive) | GI50 [25]: 23.1 µM (inactive) | GI50 [26]: 25.5 µM (inactive) | GI50 [27]: 25.5 µM (inactive) | GI50 [28]: 23.2 µM (inactive) | GI50 [29]: 22.3 µM (inactive) | GI50 [30]: 18.9 µM (inactive) | GI50 [31]: 20.9 µM (inactive) | GI50 [32]: 37.6 µM (inactive) | GI50 [33]: 33.9 µM (inactive) | GI50 [34]: 16.8 µM (inactive) | GI50 [35]: 18.6 µM (inactive) | GI50 [36]: 25.1 µM (inactive) | GI50 [37]: 27.5 µM (inactive) | GI50 [38]: 25.1 µM (inactive) | GI50 [39]: 23.7 µM (inactive) | GI50 [40]: 29.9 µM (inactive) | GI50 [41]: 18.9 µM (inactive) | GI50 [42]: 42.5 µM (inactive) | GI50 [43]: 20.7 µM (inactive) | GI50 [44]: 32.8 µM (inactive) | GI50 [45]: 62.7 µM (inactive) | GI50 [46]: 25 µM (inactive) | GI50 [47]: 22.6 µM (inactive) | GI50 [48]: 25.3 µM (inactive) | GI50 [49]: 12.5 µM (inactive) | GI50 [50]: 24.2 µM (inactive) | GI50 [51]: 16.7 µM (inactive) | GI50 [52]: 10.9 µM (inactive) | GI50 [53]: 25.4 µM (inactive) | GI50 [54]: 7.23 µM (inactive) | GI50 [55]: 11.8 µM (inactive)

CC(C)C(NC(=O)C(C(C)C)N(C)C)C(=O)N(C)C(C(=O)N1CCCC1C(=O)N1CCCC1C(=O)NCc1ccccc1)C(C)C (centres undefined) (ξNMe2Val-V[NMeV]PP-NHBn; configuration not given here)
GI50 [1]: < 0.0001 µM | GI50 [2]: 0.00179 µM (active) | GI50 [3]: < 0.0001 µM (active) | GI50 [4]: < 0.0001 µM (active) | GI50 [5]: < 0.0001 µM (active) | GI50 [6]: < 0.0001 µM (active) | GI50 [7]: < 0.0001 µM (active) | GI50 [8]: < 0.0001 µM (active) | GI50 [9]: < 0.01 µM (active) | GI50 [10]: < 0.0001 µM (active) | GI50 [11]: < 0.01 µM (active) | GI50 [14]: < 0.01 µM (active) | GI50 [56]: 0.172 µM (active) | GI50 [15]: < 0.0001 µM (active) | GI50 [16]: < 0.0001 µM (active) | GI50 [17]: < 0.0001 µM (active) | GI50 [18]: < 0.0001 µM (active) | GI50 [19]: < 0.0001 µM (active) | GI50 [20]: < 0.0001 µM (active) | GI50 [21]: 0.001 µM (active) | GI50 [22]: < 0.0001 µM (active) | GI50 [23]: < 0.0001 µM (active) | GI50 [24]: 0.0187 µM (active) | GI50 [25]: < 0.0001 µM (active) | GI50 [27]: < 0.0001 µM (active) | GI50 [28]: < 0.0001 µM (active) | GI50 [29]: 0.0675 µM (active) | GI50 [30]: < 0.0001 µM (active) | GI50 [31]: < 0.0001 µM (active) | GI50 [33]: < 0.0001 µM (active) | GI50 [34]: < 0.0001 µM (active) | GI50 [35]: < 0.0001 µM (active) | GI50 [57]: < 0.0001 µM (active) | GI50 [36]: < 0.0001 µM (active) | GI50 [37]: < 0.0001 µM (active) | GI50 [38]: < 0.0001 µM (active) | GI50 [39]: < 0.01 µM (active) | GI50 [40]: < 0.0001 µM (active) | GI50 [41]: < 0.0001 µM (active) | GI50 [42]: 15.7 µM (inactive) | GI50 [43]: < 0.0001 µM (active) | GI50 [44]: < 0.01 µM (active) | GI50 [45]: < 0.0001 µM (active) | GI50 [46]: < 0.0001 µM (active) | GI50 [47]: < 0.0001 µM (active) | GI50 [48]: < 0.0001 µM (active) | GI50 [49]: < 0.0001 µM (active) | GI50 [50]: 0.000221 µM (active) | GI50 [51]: < 0.0001 µM (active) | GI50 [52]: < 0.0001 µM (active) | GI50 [53]: < 0.0001 µM (active) | GI50 [58]: 0.0175 µM (active) | GI50 [54]: < 0.0001 µM (active) | GI50 [55]: 0.0015 µM (active)
